The results in this text go back to patent US8552013B2, “Heterocyclic compounds based on N6-substituted adenine, methods of their preparation, their use for preparation of drugs, cosmetic preparations and growth regulators, pharmaceutical preparations, cosmetic preparations and growth regulators containing these compounds” (USTAV Experimentalni Botaniky Akademie Ved Ceske Republiky, priority 2001, dated 2013).

Structures are written as SMILES.

The subject of series [1] is Rosa hybrida 'Pailin' explants. In words: Early shoot senescence of tissue cultured roses. It counts as in vivo. As to conditions: for relative number of dead plants in relation to culture time: 10 μM in medium. As to the method:
Rosa hybrida ‘Pailin’ (a cut rose) was cultured in 350 ml vessels with a screw on polycarbonate lid. Each culture vessel contained 100 ml autoclaved medium (120° C., 20 min). The cultures were maintained at 23±2° C. under a 16 h photoperiod at 40 μM m^−2 s^−1 PAR. The basal medium (BMR) contained Murashige and Skoog (1962) macroelements, microelements and vitamins, 36.7 mg/l NaFeEDTA, 50 mg/l NaFeEDDHA, 100 mg/l […] myo-inositol, 30 g/l sucrose, 100 mg/l glycine, 50 mg/l calcium pantothenate, 100 mg/l L-glutamine and 7 g/l agar-agar. This medium was supplemented with 10 μM BA, mT and mMeOBAP. The last 2 cytokinins were filter sterilised and added after autoclaving the medium in the vessels. The control medium didn't contain any cytokinin. After a culture period of 6 weeks, scoring senescence symptoms was started.

For series [2], the system named is human adult skin fibroblasts. As to the kind of experiment: Short-term growth of human skin fibroblasts (cell counts, Giemsa). It counts as cell-based. As to conditions: for Cell growth versus untreated: 40 μM and 80 μM; for Cell proliferation (summary): all concentrations (40, 80, 200 and 500 μM); for appearance of dermal cells (summary): all doses 40, 80, 200 and 500 μM; for Cellular growth at higher concentrations: para 200 to 500 μM after 11 days, ortho 200 and 400 μM after 7 days, meta 400 μM. The method, then: (§1) All experiments were performed on early and mid passage cultures (about 20 to 40% lifespan completed) of normal human adult skin fibroblast line; designated ASF-2 & Senetek cell line (about 10-90% lifespan completed); designated as SF20. In order to check the effects of test compounds on senescent cells, late passage cells with more than 95% lifespan completed were used. ASF-2 and SF20 cell lines were established from a mammary skin biopsy obtained from a young, non-smoking and healthy […] at the time of breast reduction operation. Normal culture conditions of medium (DMEM) containing antibiotics, 10% foetal calf serum, and incubation at 37° C. with 95% humidity were used. The effects of the test chemicals were determined in the following conditions:
Short-term growth experiments were performed using 24-well tissue culture plates (growth area 1.9 cm^2). Freshly prepared cell suspensions from mass cultures of ASF-2 cells maintained in our labs were used. About 10,000 cells were seeded into 6 sets of 24-well plates. The cells were allowed to attach and stabilize for 24 hr in normal culture medium to achieve various final concentrations (range 40 to 500 μM). Culture medium was changed with the addition of test chemicals twice a week. The numbers of cells were counted after different days of treatment in 2 wells from each concentration of the test chemical, by following the normal method of cell trypsinization and counting using a Coultercounter. The third well in each category was fixed by cold methanol and stained with Giemsa stain for permanent record and for photography. The experiment was carried on for until the cultures became fully confluent and no further growth was possible.

Series [3] has as its system human skin fibroblasts. In words: Cell survival, MTT assay. It counts as cell-based. As to conditions: 3 days. The method, then:
Cell survival after exposure to various doses was measured with the 3-(4,5 dimethylthiazol-2-yl)-2,5-diphenyltetrazolium bromide (MTT) assay. About 5,000 cells were seeded per well in a 96-well plate 24 h before the experiment. Cells were then treated with various doses of the compound to be tested. The wells were washed in Hank's and new medium was added. After three days, MTT (Sigma, M2128) was added at 0.5 mg/ml in medium. After 4 h, MTT was removed and isopropanol and HCl were added to dissolve the MTT crystals for 12-16 h. The absorbance at 595 nm was measured.
For orientation: Tetrazolium assays rely on reduction of a dye to a coloured formazan, in cell work by metabolically active cells.

For series [4], the system named is lysosomes of fibroblast cells. As to the kind of experiment: Lysosomal activity, neutral red uptake. The class given is cell-based, human. As to conditions: pre-treated fibroblasts. The method, then: Neutral Red is preferentially taken up into the lysosomes of the cell. Fibroblast cells are maintained in culture and exposed to test compounds over a range of concentrations. The cultures are visually examined after 72 hours, and the number of viable cells and/or the total cell protein content determined, after 72 hours exposure, by the Neutral Red Uptake method. Advantage of Neutral Red assay is that it detects only viable cells. Any chemical having a localized effect upon the lysosomes will, therefore, result in an artificially low (or possibly high) reflection of cell viability and cell number. This factor does, however, make the system useful to detect those compounds which selectively affect the lysosomes, especially when it is used in conjunction with other tests capable of determining cell number.
The NR assay has been applied to evaluation and ranking the cytotoxicity of a spectrum of compounds. Individual wells of a 96-well tissue culture microtiter plate were inoculated with 0.2 ml of the appropriate media containing cells (usually 3×10^3 cells). After 1 to 2 days of incubation, the media were removed and replaced with unamended (control) medium or with medium amended with varied concentrations of the compound to be tested. After 3 days of exposure to the compound, media were removed and replaced with media containing 0.001% NR. The assay plate was then returned to the incubator for another 3 h to allow for uptake of the supravital dye into the lysosomes of viable cells. Thereafter, the media were removed and the cells were rapidly washed with 0.5% formaldehyde-1% CaCl2 followed by 0.2 ml of a solution of 1% acetic acid-50% ethanol to extract the dye from the cells. After 10 min at room temperature and a brief but rapid agitation on a microtiter plate shaker, the plates were transferred to a microplate spectrophotometer equipped with a 540-nm filter to measure the absorbance of the extracted dye.
The toxicities of the various compounds were compared with those of the control cultures by computing the data obtained.

The next series concerns proteasome. As to the kind of experiment: Proteasomal chymotrypsin-like activity in cell extracts of treated cells. As to conditions: 40, 80 and 200 μM. The class given is cell-based, human. As to the method: Chymotrypsin-like activity in cell extracts prepared from treated and untreated cells was determined by in vitro degradation of oligopeptides by the proteasome.
The test system of series [5] is senescent human skin fibroblasts. As to the kind of experiment: Actin staining of senescent cells (FITC-Phalloidin). The class given is cell-based. As to conditions: after 3 days; meta 40 μM. The source says: Actin staining: The pattern of cytoskeletal actin staining was studied by staining the cells with florescent ligand FITC-labelled Phalloidin, using a fluorescence microscope

Series [6] shares this test system. As to the kind of experiment: Morphology of senescent cells. The class given is cell-based. As to conditions: for appearance of senescent cells on longer treatment: 14 days, ortho and meta 80 μM and above; for appearance of senescent cells: after 7 days of treatment (para: 7 days and 14 days; meta: low concentrations). The method, then: as §1
Senescent human skin fibroblasts were treated with various doses of para-topolin to see if this treatment could reverse age-related alterations in their morphology. […] The cells progressively became heterogeneous with large and flattened appearance.

Series [7] has the same test system. In words: Numbers of surviving senescent cells (Coulter counter). It counts as cell-based. As to conditions: 7 to 14 days of treatment. As to the method:
Equal numbers of senescent cells were seeded in separate flasks and were treated with different concentrations of para-topolin. Cell numbers were determined by using a Coulter counter after trpsinization and resuspension of cells after 7 and 14 days of treatment.
Equal numbers of senescent cells were seeded in separate flasks and were treated with different concentrations of ortho-topolin. Cell numbers were determined by using a Coulter counter after trypsinisation and resuspension of cells, after 7 and 14 days of treatment.

The subject of series [8] is human skin fibroblasts. As to the kind of experiment: Apoptosis assay in treated skin fibroblasts. As to conditions: 3 days of treatment; ortho 200 μM. The class given is cell-based.
Series [9] has as its system human skin fibroblasts. As to the kind of experiment: Series of experiments on short-term effects on human skin fibroblasts, conclusion. The class given is cell-based. As to conditions: para at a dose of 40 μM. The method, then:
as §1
The experiments were performed to determine the effects of short-term treatment of ortho-topolin, meta-topolin, and para-topolin on cell attachment, survival, growth, apoptosis, actin cytoskeletal pattern, lysosomal activity, proteasomal activity and morphology of human skin fibroblasts in culture.

For `Oc1cccc(CNc2ncnc3nc[nH]c23)c1` [meta-topolin, 6-(3-hydroxybenzylamino)purine], the “relative number of dead plants in relation to culture time” value in [1] was “the situation improved”. For the same compound, in series [2], the “Cell growth versus untreated” value is listed as “almost similar”, the “Cell proliferation (summary)” value was “declined to a significant extent”, the “appearance of dermal cells (summary)” value is reported as “morbid in appearance” and the “Cellular growth at higher concentrations” value is “almost no growth”. In series [2] (200 μM), the rate of growth entry is listed as “slowed down”. For the same compound, in the series with human skin fibroblasts [3], the “cells that did survive treatment” value turned out to be 60%. In addition, the cells killed result in the series with human skin fibroblasts [3] (between 0.01 and 1 μM) is given as “about 40%”. In addition, the “Cleaning up of cytoplasmic debris (macro-molecular turn-over rate), summary” value in series [4] is “No such effective removal was observed”. For the same compound, in the series with proteasome, the “proteasomal activity (chymotrypsin-like), removal of oxidized and abnormal proteins” value is “failed to show such an effect”. Also, the “actin staining pattern in senescent cells” value in series [5] is listed as “depolymerised actin filaments to some extent”. Also, in series [6] (200 μM and above, within 7 days), the “effects on morphology of senescent cells” value is listed as “some negative effects”. In addition, in series [6], the “appearance of senescent cells on longer treatment” value was “unhealthy and sick”; the “appearance of senescent cells” value is reported as “no significant differences”. The “numbers of surviving senescent cells” value in [7] is reported as “reduces the number of surviving senescent cells in a dose dependent manner”. Moreover, the apoptosis assay result in the series on human skin fibroblasts [8] is “cell death at 40 μM and above”. In the series with human skin fibroblasts [9], the “conclusion on short-term effects on human skin fibroblasts” value is on record as “little or no beneficial effects”.

For the compound `COc1cccc(CNc2ncnc3nc[nH]c23)c1` [6-(3-methoxybenzylamino)purine], the “relative number of dead plants in relation to culture time” value in series [1] is “the situation improved”. Besides, in series [1] (10 μM, after 121 days), the plants alive result is “almost all plants were still alive”.

For the compound `Oc1ccccc1CNc1ncnc2nc[nH]c12` [ortho-topolin, 6-(2-hydroxybenzylamino)purine], in series [2], the “Cell growth versus untreated” value is on record as “almost similar”, the “Cell proliferation (summary)” value is on record as “declined to a significant extent”, the “appearance of dermal cells (summary)” value is “morbid in appearance” and the “Cellular growth at higher concentrations” value was “almost a total inhibition”. Also, the “reduction in cell survival” value in the series on human skin fibroblasts [3] (200-500 μM) was 10-20%. In addition, in the series on human skin fibroblasts [3] (range 0.01-500 μM), the “dose until which not cytotoxic / no toxic effect on survival (MTT)” value came out at 100 µM. For the same compound, in series [4], the “Cleaning up of cytoplasmic debris (macro-molecular turn-over rate), summary” value is on record as “No such effective removal was observed”. In addition, in the series on proteasome, the “proteasomal activity (chymotrypsin-like), removal of oxidized and abnormal proteins” value is given as “failed to show such an effect”. The “actin staining pattern in senescent cells” value in [5] is “no obvious differences”. In [6], the “appearance of senescent cells on longer treatment” value is “unhealthy and sick”; the “appearance of senescent cells” value was “no significant differences”. Also, in series [7], the “numbers of surviving senescent cells” value was “reduces the number of surviving senescent cells significantly”. Further, the apoptosis assay result in the series on human skin fibroblasts [8] is “some induction of apoptosis”. In addition, in the series with human skin fibroblasts [9], the “conclusion on short-term effects on human skin fibroblasts” value is “little or no beneficial effects”.
